Data: patent US11660275B2, “Epilepsy treatment agent” (Eisai R&D Management Co., Ltd., priority 2018, dated 2023)

Assays:
[1] = tested on: mouse sound-induced convulsion model; experiment: Mouse sound-induced convulsion model (tonic convulsion, hindlimb extension); type: in vivo; settings: 0.5 h, DBA/2 JJcl mice, oral, sound stimulation 30 minutes after administration, % Tonic convulsion, regression analysis
Description: A mouse sound-induced convulsion model test was carried out to confirm the suppressive effect on convulsions. Tonic convulsion induced by sound stimulation is used as the index for evaluation in this model (European Journal of Pharmacology, 222, p 193-203(1992)).
Three-week-old male DBA/2 JJcl mice (Clea Japan, Inc.) were provided for the test (n=5 for each treatment, total 2 times). Tonic convulsion induced by sound stimulation was used as the indicator for evaluation (see aforementioned publication).
Compound (Ia) and/or compound (11) was dissolved in a 0.4% methyl cellulose/5% cremophor/5% IN hydrochloric acid/10% dimethyl sulfoxide solution for an administered dose of 20 mL/kg each to prepare samples which were orally administered. A mixed solution without the compound (vehicle) was used as a negative control. Sound stimulation (11 kHz, 115 dB, duration: 30 sec) was carried out 30 minutes after administration of the samples, to induce convulsions. Immediately after cessation of the sound stimulation, tonic convulsion was evaluated by observing the presence or absence of hindlimb extension. […]

mouse kindling models = settings: PTL 1; cited from earlier work

Structure (SMILES): N#Cc1ccccc1-c1cc(-c2ccccn2)cn(-c2ccccc2)c1=O [compound (II), 3-(2-cyanophenyl)-5-(2-pyridyl)-1-phenyl-1,2-dihydropyridin-2-one, reference compound]
- ED50 [1]: 0.33 mg/kg

Structure (SMILES): NS(=O)(=O)N[C@H]1c2c(F)cc(F)cc2CC1(F)F [compound (Ia), N-[(1S)-2,2,5,7-tetrafluoro-2,3-dihydro-1H-inden-1-yl]sulfamide]
- effect on seizure severity (score) (mouse kindling models): ameliorating effect
- ED50 [1]: 53 mg/kg

Structure (SMILES): NS(=O)(=O)N[C@H]1c2c(F)ccc(F)c2CC1(F)F [compound (Ib), N-[(1S)-2,2,4,7-tetrafluoro-2,3-dihydro-1H-inden-1-yl]sulfamide]
- effect on seizure severity (score) (mouse kindling models): ameliorating effect

Structure (SMILES): NS(=O)(=O)N[C@H]1c2c(F)c(F)cc(F)c2CC1(F)F [compound (Ic), (+)-N-(2,2,4,6,7-pentafluoro-2,3-dihydro-1H-inden-1-yl)sulfamide]
- effect on seizure severity (score) (mouse kindling models): ameliorating effect
